# Source: patent US20070049564A1 (Wyeth, priority 2005, published 2007)
# Like-named read-outs stand apart in the source and are kept apart here.
# Columns and labels:
# Assay in all cases: MIC, broth microdilution
# E. coli GC 2235 = conditions: Escherichia coli
# Procedure: (§1) Antimicrobial susceptibility testing. The in vitro activities of the antibiotics are determined by the broth microdilution method as recommended by the National Committee for Clinical Laboratory Standards (NCCLS) (1). Mueller-Hinton II broth (MHBII)(BBL Cockeysville, Md.) is the medium employed in the testing procedures. Microtiter plates containing serial dilutions of each antimicrobial agent are inoculated with each organism to yield the appropriate density (10^5 CFU/ml) in a 100 μl final volume. The plates are incubated for 18-22 hours at 35° C. in ambient air.
# (§2) Representative compounds were first incubated in mouse serum for an hour prior to the in vitro testing against a panel of selected gram-positive and gram-negative bacteria strains. All compounds were also pre-incubated in water for an hour prior to testing as control. Representative compounds of Formula I were incubated in human serum prior to MIC determination.
# E. coli GC 2233 = conditions: Escherichia coli
# E. coli GC 2234 = conditions: Escherichia coli
# E. coli GC 2270 = conditions: Escherichia coli
# E. coli GC 2271 = conditions: Escherichia coli
# E. coli GC 4559 = conditions: Escherichia coli
# Procedure: as §1, §2
# E. coli GC 4560 = conditions: Escherichia coli
# E. coli GC 6465 = conditions: Escherichia coli
# E. coli GC 3226 = conditions: Escherichia coli
# E. coli GC 2203 = conditions: Escherichia coli
# E. coli GC 1073 = conditions: Escherichia coli
# S. typhimurium GC 2172 = conditions: Salmonella enterica, TYPHIMURIUM
# S. aureus GC 6466 = conditions: Staphylococcus aureus
# S. aureus GC 6467 = conditions: Staphylococcus aureus
# S. aureus GC 1079 = conditions: Staphylococcus aureus
# S. aureus GC 6335 = conditions: Staphylococcus aureus
# S. aureus GC 6469 = conditions: Staphylococcus aureus
# E. faecium GC 4556 = conditions: Enterococcus faecium
# S. pyogenes GC 4563 = conditions: Streptococcus pyogenes
# S. agalactiae GC 4564 = conditions: Streptococcus agalactiae
smiles,measurement,setting,value
"CC(C)C(=O)OCOC(=O)N(CC(=O)Nc1cc(N(C)C)c2c(c1O)C(=O)C1=C(O)[C@]3(O)C(=O)C(C(N)=O)=C(O)[C@@H](N(C)C)[C@@H]3C[C@@H]1C2)C(C)(C)C [Example 45, ({[(2-{[(5aR,6aS,7S,10aS)-9-(aminocarbonyl)-4,7-bis(dimethylamino)-1,8,10a,11-tetrahydroxy-10,12-dioxo-5,5a,6,6a,7,10,10a,12-octahydrotetracen-2-yl]amino}-2-oxoethyl)(tert-butyl)amino]carbonyl}oxy)methyl 2-methylpropanoate]",MIC,"E. coli GC 2235; GC2235, read-out: MINIMAL INHIBITORY CONCENTRATION MIC, pre-incubated in Human Serum",4 µg/mL
same,MIC,"E. coli GC 2235; GC2235, read-out: MINIMAL INHIBITORY CONCENTRATION MIC, pre-incubated in Mouse Serum",0.5 µg/mL
same,MIC,"E. coli GC 2235; GC2235, read-out: MINIMAL INHIBITORY CONCENTRATION MIC, pre-incubated in Water",16 µg/mL
same,MIC,"E. coli GC 2233; GC2233, read-out: MINIMAL INHIBITORY CONCENTRATION MIC, pre-incubated in Human Serum",4 µg/mL
same,MIC,"E. coli GC 2233; GC2233, read-out: MINIMAL INHIBITORY CONCENTRATION MIC, pre-incubated in Mouse Serum",1 µg/mL
same,MIC,"E. coli GC 2233; GC2233, read-out: MINIMAL INHIBITORY CONCENTRATION MIC, pre-incubated in Water",16 µg/mL
same,MIC,"E. coli GC 2234; GC2234, read-out: MINIMAL INHIBITORY CONCENTRATION MIC, pre-incubated in Human Serum",4 µg/mL
same,MIC,"E. coli GC 2234; GC2234, read-out: MINIMAL INHIBITORY CONCENTRATION MIC, pre-incubated in Mouse Serum",0.5 µg/mL
same,MIC,"E. coli GC 2234; GC2234, read-out: MINIMAL INHIBITORY CONCENTRATION MIC, pre-incubated in Water",16 µg/mL
same,MIC,"E. coli GC 2270; GC2270, read-out: MINIMAL INHIBITORY CONCENTRATION MIC, pre-incubated in Human Serum",4 µg/mL
same,MIC,"E. coli GC 2270; GC2270, read-out: MINIMAL INHIBITORY CONCENTRATION MIC, pre-incubated in Mouse Serum",0.5 µg/mL
same,MIC,"E. coli GC 2270; GC2270, read-out: MINIMAL INHIBITORY CONCENTRATION MIC, pre-incubated in Water",32 µg/mL
same,MIC,"E. coli GC 2271; GC2271, read-out: MINIMAL INHIBITORY CONCENTRATION MIC, pre-incubated in Human Serum",4 µg/mL
same,MIC,"E. coli GC 2271; GC2271, read-out: MINIMAL INHIBITORY CONCENTRATION MIC, pre-incubated in Mouse Serum",0.5 µg/mL
same,MIC,"E. coli GC 2271; GC2271, read-out: MINIMAL INHIBITORY CONCENTRATION MIC, pre-incubated in Water",16 µg/mL
same,MIC,"E. coli GC 4559; GC4559, read-out: MINIMAL INHIBITORY CONCENTRATION MIC, pre-incubated in Human Serum",8 µg/mL
same,MIC,"E. coli GC 4559; GC4559, read-out: MINIMAL INHIBITORY CONCENTRATION MIC, pre-incubated in Mouse Serum",1 µg/mL
same,MIC,"E. coli GC 4559; GC4559, read-out: MINIMAL INHIBITORY CONCENTRATION MIC, pre-incubated in Water",64 µg/mL
same,MIC,"E. coli GC 4560; GC4560, read-out: MINIMAL INHIBITORY CONCENTRATION MIC, pre-incubated in Human Serum",0.5 µg/mL
same,MIC,"E. coli GC 4560; GC4560, read-out: MINIMAL INHIBITORY CONCENTRATION MIC, pre-incubated in Mouse Serum",0.25 µg/mL
same,MIC,"E. coli GC 4560; GC4560, read-out: MINIMAL INHIBITORY CONCENTRATION MIC, pre-incubated in Water",2 µg/mL
same,MIC,"E. coli GC 6465; GC6465, read-out: MINIMAL INHIBITORY CONCENTRATION MIC, pre-incubated in Human Serum",16 µg/mL
same,MIC,"E. coli GC 6465; GC6465, read-out: MINIMAL INHIBITORY CONCENTRATION MIC, pre-incubated in Mouse Serum",2 µg/mL
same,MIC,"E. coli GC 6465; GC6465, read-out: MINIMAL INHIBITORY CONCENTRATION MIC, pre-incubated in Water",> 64 µg/mL
same,MIC,"E. coli GC 3226; GC3226, read-out: MINIMAL INHIBITORY CONCENTRATION MIC, pre-incubated in Human Serum",8 µg/mL
same,MIC,"E. coli GC 3226; GC3226, read-out: MINIMAL INHIBITORY CONCENTRATION MIC, pre-incubated in Mouse Serum",1 µg/mL
same,MIC,"E. coli GC 3226; GC3226, read-out: MINIMAL INHIBITORY CONCENTRATION MIC, pre-incubated in Water",64 µg/mL
same,MIC,"E. coli GC 2203; GC2203, read-out: MINIMAL INHIBITORY CONCENTRATION MIC, pre-incubated in Human Serum",4 µg/mL
same,MIC,"E. coli GC 2203; GC2203, read-out: MINIMAL INHIBITORY CONCENTRATION MIC, pre-incubated in Mouse Serum",0.5 µg/mL
same,MIC,"E. coli GC 2203; GC2203, read-out: MINIMAL INHIBITORY CONCENTRATION MIC, pre-incubated in Water",32 µg/mL
same,MIC,"E. coli GC 1073; GC1073, read-out: MINIMAL INHIBITORY CONCENTRATION MIC, pre-incubated in Human Serum",8 µg/mL
same,MIC,"E. coli GC 1073; GC1073, read-out: MINIMAL INHIBITORY CONCENTRATION MIC, pre-incubated in Mouse Serum",1 µg/mL
same,MIC,"E. coli GC 1073; GC1073, read-out: MINIMAL INHIBITORY CONCENTRATION MIC, pre-incubated in Water",64 µg/mL
same,MIC,"S. typhimurium GC 2172; read-out: MINIMAL INHIBITORY CONCENTRATION MIC, pre-incubated in Human Serum",32 µg/mL
same,MIC,"S. typhimurium GC 2172; read-out: MINIMAL INHIBITORY CONCENTRATION MIC, pre-incubated in Mouse Serum",2 µg/mL
same,MIC,"S. typhimurium GC 2172; read-out: MINIMAL INHIBITORY CONCENTRATION MIC, pre-incubated in Water",> 64 µg/mL
same,MIC,"S. aureus GC 6466; GC6466, read-out: MINIMAL INHIBITORY CONCENTRATION MIC, pre-incubated in Human Serum",0.25 µg/mL
same,MIC,"S. aureus GC 6466; GC6466, read-out: MINIMAL INHIBITORY CONCENTRATION MIC, pre-incubated in Mouse Serum",0.25 µg/mL
same,MIC,"S. aureus GC 6466; GC6466, read-out: MINIMAL INHIBITORY CONCENTRATION MIC, pre-incubated in Water",0.5 µg/mL
same,MIC,"S. aureus GC 6467; GC6467, read-out: MINIMAL INHIBITORY CONCENTRATION MIC, pre-incubated in Human Serum",1 µg/mL
same,MIC,"S. aureus GC 6467; GC6467, read-out: MINIMAL INHIBITORY CONCENTRATION MIC, pre-incubated in Mouse Serum",1 µg/mL
same,MIC,"S. aureus GC 6467; GC6467, read-out: MINIMAL INHIBITORY CONCENTRATION MIC, pre-incubated in Water",2 µg/mL
same,MIC,"S. aureus GC 1079; GC1079, read-out: MINIMAL INHIBITORY CONCENTRATION MIC, pre-incubated in Human Serum",0.12 µg/mL
same,MIC,"S. aureus GC 1079; GC1079, read-out: MINIMAL INHIBITORY CONCENTRATION MIC, pre-incubated in Mouse Serum",0.5 µg/mL
same,MIC,"S. aureus GC 1079; GC1079, read-out: MINIMAL INHIBITORY CONCENTRATION MIC, pre-incubated in Water",1 µg/mL
same,MIC,"S. aureus GC 6335; GC6335, read-out: MINIMAL INHIBITORY CONCENTRATION MIC, pre-incubated in Human Serum",0.5 µg/mL
same,MIC,"S. aureus GC 6335; GC6335, read-out: MINIMAL INHIBITORY CONCENTRATION MIC, pre-incubated in Mouse Serum",1 µg/mL
same,MIC,"S. aureus GC 6335; GC6335, read-out: MINIMAL INHIBITORY CONCENTRATION MIC, pre-incubated in Water",2 µg/mL
same,MIC,"S. aureus GC 6469; GC6469, read-out: MINIMAL INHIBITORY CONCENTRATION MIC, pre-incubated in Human Serum",0.5 µg/mL
same,MIC,"S. aureus GC 6469; GC6469, read-out: MINIMAL INHIBITORY CONCENTRATION MIC, pre-incubated in Mouse Serum",1 µg/mL
same,MIC,"S. aureus GC 6469; GC6469, read-out: MINIMAL INHIBITORY CONCENTRATION MIC, pre-incubated in Water",1 µg/mL
same,MIC,"E. faecium GC 4556; GC4556, read-out: MINIMAL INHIBITORY CONCENTRATION MIC, pre-incubated in Human Serum",1 µg/mL
same,MIC,"E. faecium GC 4556; GC4556, read-out: MINIMAL INHIBITORY CONCENTRATION MIC, pre-incubated in Mouse Serum",1 µg/mL
same,MIC,"E. faecium GC 4556; GC4556, read-out: MINIMAL INHIBITORY CONCENTRATION MIC, pre-incubated in Water",2 µg/mL
same,MIC,"S. pyogenes GC 4563; GC4563, read-out: MINIMAL INHIBITORY CONCENTRATION MIC, pre-incubated in Human Serum",0.25 µg/mL
same,MIC,"S. pyogenes GC 4563; GC4563, read-out: MINIMAL INHIBITORY CONCENTRATION MIC, pre-incubated in Mouse Serum",0.25 µg/mL
same,MIC,"S. pyogenes GC 4563; GC4563, read-out: MINIMAL INHIBITORY CONCENTRATION MIC, pre-incubated in Water",0.5 µg/mL
same,MIC,"S. agalactiae GC 4564; GC4564, read-out: MINIMAL INHIBITORY CONCENTRATION MIC, pre-incubated in Human Serum",0.5 µg/mL
same,MIC,"S. agalactiae GC 4564; GC4564, read-out: MINIMAL INHIBITORY CONCENTRATION MIC, pre-incubated in Mouse Serum",0.25 µg/mL
same,MIC,"S. agalactiae GC 4564; GC4564, read-out: MINIMAL INHIBITORY CONCENTRATION MIC, pre-incubated in Water",0.5 µg/mL
